In ChEMBL document CHEMBL1151554, “Non thiazolidinedione antihyperglycaemic agents. 1: -Heteroatom substituted -phenylpropanoic acids” (Bioorg Med Chem Lett, 1996):

What was measured:
[1] = target: T1, Peroxisome proliferator-activated receptor gamma (Homo sapiens, UniProt P37231)
T1 sequence (P37231 whole entry): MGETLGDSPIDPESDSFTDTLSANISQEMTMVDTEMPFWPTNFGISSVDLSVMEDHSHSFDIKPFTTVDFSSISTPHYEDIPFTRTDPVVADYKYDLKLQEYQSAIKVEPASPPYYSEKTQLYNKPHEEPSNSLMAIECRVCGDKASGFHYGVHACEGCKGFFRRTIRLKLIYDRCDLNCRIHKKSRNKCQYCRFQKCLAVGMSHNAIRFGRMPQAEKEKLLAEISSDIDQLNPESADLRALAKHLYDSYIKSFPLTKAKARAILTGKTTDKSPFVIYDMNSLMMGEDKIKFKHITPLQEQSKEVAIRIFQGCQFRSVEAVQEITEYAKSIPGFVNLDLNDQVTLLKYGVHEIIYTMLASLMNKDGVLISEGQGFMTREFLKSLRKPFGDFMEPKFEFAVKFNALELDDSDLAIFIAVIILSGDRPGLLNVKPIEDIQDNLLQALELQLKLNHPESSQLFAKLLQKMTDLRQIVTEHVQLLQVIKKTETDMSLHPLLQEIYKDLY
Description: inhibition of [125I]SB 236636 binding to human PPAR gamma receptor

Mus musculus = assay: In vivo inhibition of glucose load induced hyperglycaemia in fasted C57B1/6 ob/ob mice.; type: functional
[2] = target: T2, Peroxisome proliferator-activated receptor gamma (Homo sapiens) (UniProt P37231)
T2 sequence (whole entry): T1 sequence (P37231 whole entry)

| Compound | Ki [1] | ED25 (Mus musculus) | Displacement [2] |
| --- | --- | --- | --- |
| CN(CCOc1ccc(CC(Oc2ccccc2)C(=O)O)cc1)c1nc2ccccc2o1 (stereo unspecified) | 0.4 nM | 1 µM/kg | – |
| COC(=O)C(Cc1ccc(OCCN(C)c2nc3ccccc3o2)cc1)N(C)C (stereo unspecified) | – | 1000 µM/kg | 26% |
| COC(=O)C(Br)Cc1ccc(OCCN(C)c2nc3ccccc3o2)cc1 (stereo unspecified) | – | 100 µM/kg | – |
| CN(CCOc1ccc(CC(Sc2ccccc2)C(=O)O)cc1)c1nc2ccccc2o1 (stereo unspecified) | 37 nM | 30 µM/kg | – |
| COC(=O)C(Cl)Cc1ccc(OCCN(C)c2nc3ccccc3o2)cc1 (stereo unspecified) | – | 10 µM/kg | – |
| CN(CCOc1ccc(CC(Nc2ccccc2)C(=O)O)cc1)c1nc2ccccc2o1 (stereo unspecified) | – | 30 µM/kg | – |
| CCOC(Cc1ccc(OCCN(C)c2nc3ccccc3o2)cc1)C(=O)O (stereo unspecified) | – | 0.1 µM/kg | – |
| COC(=O)C(Cc1ccc(OCCN(C)c2nc3ccccc3o2)cc1)SC (stereo unspecified) | – | 100 µM/kg | – |
| CN(CCOc1ccc(CC2SC(=O)NC2=O)cc1)c1nc2ccccc2o1 (stereo unspecified) [BRL-48482] | – | 3 µM/kg | – |
| CN(CCOc1ccc(CC(S)C(=O)O)cc1)c1nc2ccccc2o1 (stereo unspecified) | – | 300 µM/kg | – |
| CN(CCOc1ccc(CC(C(=O)O)S(=O)(=O)c2ccccc2)cc1)c1nc2ccccc2o1 (stereo unspecified) | – | 1000 µM/kg | – |
| CCCOC(Cc1ccc(OCCN(C)c2nc3ccccc3o2)cc1)C(=O)[O-].[Na+] (stereo unspecified) | – | 0.3 µM/kg | – |
| COC(=O)C(Cc1ccc(OCCN(C)c2nc3ccccc3o2)cc1)OC (stereo unspecified) | – | 3 µM/kg | – |
| COC(=O)C(Cc1ccc(OCCN(C)c2nc3ccccc3o2)cc1)OC(C)C (stereo unspecified) | – | <0.3 µM/kg | – |
| CNC(Cc1ccc(OCCN(C)c2nc3ccccc3o2)cc1)C(=O)OC (stereo unspecified) | – | 1000 µM/kg | – |
| COC(Cc1ccc(OCCN(C)c2nc3ccccc3o2)cc1)C(=O)O (stereo unspecified) | – | 3 µM/kg | – |
| CN(CCOc1ccc(CC(OCc2ccccc2)C(=O)[O-])cc1)c1nc2ccccc2o1.[Na+] (stereo unspecified) | – | 0.3 µM/kg | – |
| COC(=O)CCc1ccc(OCCN(C)c2nc3ccccc3o2)cc1 | – | >2000 µM/kg | – |
| CN(CCOc1ccc(CC(OCCc2ccccc2)C(=O)O)cc1)c1nc2ccccc2o1 (stereo unspecified) | – | 1 µM/kg | – |
| COC(=O)C(Cc1ccc(OCCN(C)c2nc3ccccc3o2)cc1)Sc1ccccc1 (stereo unspecified) | – | 30 µM/kg | – |
| CN(CCOc1ccc(CC(Cl)C(=O)O)cc1)c1nc2ccccc2o1 (stereo unspecified) | – | 10 µM/kg | – |
| CN(CCOc1ccc(CC(F)C(=O)O)cc1)c1nc2ccccc2o1 (stereo unspecified) | – | 10 µM/kg | – |
| Cc1c(C)c2c(c(C)c1O)CCC(C)(COc1ccc(CC3SC(=O)NC3=O)cc1)O2 (stereo unspecified) [TROGLITAZONE] | – | 400 µM/kg | – |
